# Data: patent publication US9181230B2, “Morpholine compounds and uses thereof” (Hoffmann-La Roche Inc., priority 2013, dated 2015)
# Where a name gives a salt, the structure may show the parent alone.
# How the values were obtained:
# rat TAAR1 = rat TAAR1 (Rattus norvegicus (Rat), UniProt Q923Y9); experiment: Radioligand binding assay on rat TAAR1; details: rat TAAR1, membranes of HEK-293 cells, second value of the cell pair mouse/rat
# Description: (§1) For the construction of expression plasmids the coding sequences of human, rat and mouse TAAR 1 were amplified from genomic DNA essentially as described by Lindemann et al.. The Expand High Fidelity PCR System (Roche Diagnostics) was used with 1.5 mM Mg^2+ and purified PCR products were cloned into pCR2.1-TOPO cloning vector (Invitrogen) following the instructions of the manufacturer. PCR products were subcloned into the pIRESneo2 vector (BD Clontech, Palo Alto, Calif.), and expression vectors were sequence verified before introduction in cell lines.
# (§2) HEK293 cells (ATCC # CRL-1573) were cultured essentially as described by Lindemann et al. (2005). For the generation of stably transfected cell lines HEK293 cells were transfected with the pIRESneo2 expression plasmids containing the TAAR coding sequences (described above) with Lipofectamine 2000 (Invitrogen) according to the instructions of the manufacturer, and 24 hrs post transfection the culture medium was supplemented with 1 mg/ml G418 (Sigma, Buchs, Switzerland). After a culture period of about 10 d clones were isolated, expanded and tested for responsiveness to trace amines (all compounds purchased from Sigma) with the cAMP Biotrak Enzyme immunoassay (EIA) System (Amersham) following the non-acetylation EIA procedure provided by the manufacturer.
# (B) Radioligand Binding Assay on Rat TAAR1
# (§3) Membrane Preparation and Radioligand Binding.
# (§4) HEK-293 cells stably expressing rat TAAR1 were maintained at 37° C. and 5% CO2 in DMEM high glucose medium, containing fetal calf serum (10%, heat inactivated for 30 min at 56° C.), penicillin/streptomycin (1%), and 375 μg/ml geneticin (Gibco). Cells were released from culture flasks using trypsin/EDTA, harvested, washed twice with ice-cold PBS (without Ca^2+ and Mg^2+), pelleted at 1,000 rpm for 5 min at 4° C., frozen and stored at −80° C. Frozen pellets were suspended in 20 ml HEPES-NaOH (20 mM, pH 7.4) containing 10 mM EDTA and homogenized with a Polytron (PT 6000, Kinematica) at 14,000 rpm for 20 s. The homogenate was centrifuged at 48,000×g for 30 min at 4° C. Subsequently, the supernatant was removed and discarded, and the pellet resuspended in 20 ml HEPES-NaOH (20 mM, pH 7.4) containing 0.1 mM EDTA using the Polytron (20 s at 14,000 rpm). This procedure was repeated and the final pellet resuspended in HEPES-NaOH containing 0.1 mM EDTA and homogenized using the Polytron. Typically, aliquots of 2 ml membrane portions were stored at −80° C. With each new membrane batch the dissociation constant (Kd) was determined via a saturation curve. […] Nonspecific binding was defined as the amount of ^3[H]-(S)-4-[(ethyl-phenyl-amino)-methyl]-4,5-dihydro-oxazol-2-ylamine bound in the presence of 10 μM unlabeled ligand. All compounds were tested at a broad range of concentrations (10 pM to 10 μM) in duplicates. […] The 96 deep well plates were incubated for 1 hr at 4° C. Incubations were terminated by rapid filtration through Unifilter-96 plates (Packard Instrument Company) and glass filters GF/C (Perkin Elmer) presoaked for 1 hr in polyethylenimine (0.3%) and washed 3 times with 1 ml of cold binding buffer. After addition of 45 μl of Microscint 40 (PerkinElmer) the Unifilter-96 plate was sealed and after 1 hr the ratioactivity counted using a TopCount Microplate Scintillation Counter (Packard Instrument Company).
# mouse TAAR1 = mouse TAAR1 (Mus musculus (Mouse), UniProt Q923Y8); experiment: Radioligand binding assay on mouse TAAR1; details: mouse TAAR1, membranes of HEK-293 cells, first value of the cell pair mouse/rat
# Description: as §1, §2
# (A) Radioligand Binding Assay on Mouse TAAR1
# as §3
# as §4, with “expressing mouse” for “expressing rat”
# Sequence of mouse TAAR1 (Q923Y8 whole entry): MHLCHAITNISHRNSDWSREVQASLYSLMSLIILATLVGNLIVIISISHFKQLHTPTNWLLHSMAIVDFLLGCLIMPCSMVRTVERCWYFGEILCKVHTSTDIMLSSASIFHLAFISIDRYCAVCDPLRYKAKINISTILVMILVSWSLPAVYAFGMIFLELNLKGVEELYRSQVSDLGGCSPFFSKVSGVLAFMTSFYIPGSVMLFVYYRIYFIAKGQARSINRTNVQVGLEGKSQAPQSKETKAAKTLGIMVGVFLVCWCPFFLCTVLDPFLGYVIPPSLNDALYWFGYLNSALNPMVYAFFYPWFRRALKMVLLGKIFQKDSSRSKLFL
# Sequence of rat TAAR1 (Q923Y9 whole entry): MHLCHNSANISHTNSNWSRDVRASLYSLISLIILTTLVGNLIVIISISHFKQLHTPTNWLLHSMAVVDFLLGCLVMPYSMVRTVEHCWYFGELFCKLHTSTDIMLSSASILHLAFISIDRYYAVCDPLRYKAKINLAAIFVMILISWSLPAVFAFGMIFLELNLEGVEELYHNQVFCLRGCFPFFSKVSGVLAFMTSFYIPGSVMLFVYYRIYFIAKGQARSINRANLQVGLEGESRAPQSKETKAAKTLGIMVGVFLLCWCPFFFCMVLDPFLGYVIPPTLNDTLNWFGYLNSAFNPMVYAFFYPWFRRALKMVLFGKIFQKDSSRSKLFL
structure (smiles),measurement,setting,value
"Fc1ccc(-c2cc(-c3ccc([C@@H]4CNCCO4)cc3F)n[nH]2)cc1 [Example 41, (R)-2-(3-Fluoro-4-(5-(4-fluorophenyl)-1H-pyrazol-3-yl)phenyl)morpholine hydrochloride]",Ki,rat TAAR1,0.0043 µM
same,Ki,mouse TAAR1,0.0011 µM
